The results in this text go back to patent EP0366451A2, “The use of oxidized polyamines, especially NN'-Bis-(3-propionaldehyde)-1-4-diaminobutane (sperminedialdehyde) as immunosuppressive agents” (ORTHO PHARMACEUTICAL CORPORATION, priority 1988, dated 1990).

In data set [1] the test system is Swiss Webster mice. The data set can be described thus: Acute toxicity, intraperitoneal. It is filed as in vivo. How it is done:
Two pairs of Swiss Webster mice were injected intraperitoneally at 200 mg and 400 mg/kg respectively and observed for toxic effects. Control groups were injected with control preparation. Two weeks after dosing, animals were necropsied and organs were examined for abnormalities.
Two pairs of Swiss Webster mice were injected intraperitoneally at 200 mg and 400 mg/kg for toxic effects.

For data set [2], the target named is T1, S-Adenosylmethionine Decarboxylase (AdoMet DC) (Mus musculus, UniProt P0DMN7).
T1 construct: endogenous in cells; host or cells: murine leukemic L1210 cells (supernatant)
T1 sequence (P0DMN7 68-334 limits assumed): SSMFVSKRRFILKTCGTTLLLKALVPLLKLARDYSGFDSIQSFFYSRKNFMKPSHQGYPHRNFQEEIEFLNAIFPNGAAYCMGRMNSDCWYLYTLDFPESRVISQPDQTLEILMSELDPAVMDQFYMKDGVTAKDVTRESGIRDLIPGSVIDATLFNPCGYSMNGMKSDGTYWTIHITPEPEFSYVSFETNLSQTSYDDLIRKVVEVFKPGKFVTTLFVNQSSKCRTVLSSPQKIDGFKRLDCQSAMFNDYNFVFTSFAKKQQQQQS
T1 sequence (P0DMN7 1-67 limits assumed): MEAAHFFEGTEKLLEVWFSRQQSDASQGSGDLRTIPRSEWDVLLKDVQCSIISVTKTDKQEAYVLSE
The data set can be described thus: AdoMet DC inhibition in L1210 cell supernatants ([14C]CO2 release). It is filed as biochemical, Murine. How it is done: Murine leukemic L1210 cell supernatants were incubated with different concentrations of SDA or butyl dialdehyde, and AdoMet DC activity was estimated by monitoring the release of [¹⁴C] CO₂. Inhibition curves for both drugs were superimposable with IC₅₀ values of 0.12-0.13 x 10⁻³ M.

Data set [3] has as its system (Lewis x BN) F1 rats. Description: Graft vs. host reaction in rat (popliteal lymph node study). It is filed as in vivo. How it is done:
(LewXBN) rats were injected i.v. daily for 8 days with different doses of spermine dialdehyde. On day 2, BN rat spleen cells were injected subcutaneously into the left foot pads of the (LewxBN)F1 rats. These rats were sacrificed in 7 days and weights of both left and right popliteal lymph nodes were removed. The difference in weight is plotted as a function of spermine dialdehyde concentrations used.
Graft vs. host reaction in rats was measured by popliteal lymph node enlargement induced by reinjection of parental spleen cells into F1 recipients. (Lewis x BN) F1 rats were divided into groups of 10 and given daily IV injections of different doses of the test compound (spermine dialdehyde) or control preparation. Two days after the first injection, they received 9 x 10⁶ spleen cells from a parental Lewis strain (0.3 ml of a […] cell/ml preparation was injected under the skin of the ventral surface of each of the recipient's right hind foot). Injection of test compound and control article continued for 6 more days. On the seventh day, rats were sacrificed by CO₂ treatment. Both left and right politeal lymph nodes were removed and cleaned of any adhering tissue. The extent of enlargement was measured by weighing both left and right lymph nodes and differences between the two were calculated.
Graft vs. host reaction was generated in the form of popliteal lymph node in F1 recipients by subcutaneous injection of parental spleen cells. Spermine aldehyde was administered intravenously starting 2 days before parental spleen cell injection and continued until the day of lymph node measurement. Increase in popliteal lymph node swelling was scored by difference in weight between test (left) and control (right) lymph node. […] This GVH reaction is a typical manifestation of MHC class II reaction involving allogenic T lymphocytes.

The test system of data set [4] is lethally irradiated AKR mice. The data set can be described thus: Bone marrow transplantation with ex vivo treated graft (GVHD, survival). The format is in vivo. As for the experimental part:
C57BL spleen and bone marrow cell mixtures were treated with different concentrations of spermine dialdehyde or control preparation and injected i.v. into lethally irradiated AKR mice. A graph is depicted wherein percentage survival is scored as a function of time.
In bone marrow transplantation, bone marrow cells from normal donor mice were transplanted to totally histoincompatible and lethally irradiated recipients. All recipient mice received 9.5 Gy (950 rads) total body irradiation on day 0 and were then housed in microisolator cages thereafter. They were given autoclaved rodent laboratory chow throughout the whole study and also were allowed to feed ad libitum. Recipients also received 1.5 mg/kg of gentamicin subcutaneously for 20 days after irradiation. On the day of irradiation, bone marrow cells mixed in 3:1 ratio with spleen cells were removed from donors and incubated for an hour with different concentrations of spermine dialdehyde for 1 hour. Spleen cells were added to intensify subsequent graft vs. host disease (GVHD). After incubation, cells were washed 3 times and then injected intravenously into irradiated recipients. Signs of GVHD and survival were scored every day thereafter.
Bone marrow and spleen cell mixtures (3:1 ratio) from C57BL mice were incubated with control preparation or various concentrations of spermine dialdehyde for 1 hour Cells were then washed extensively and injected intravenously into lethally irradiated histoincompatible AKR mice. Signs of graft vs. host diseases such as hunched back, diarrhea, alopecia, and physical conditions were recorded daily. […] Thus treatment with lower doses of spermine dialdehyde inactivated T lymphocytes without being toxic to marrow celis and allowed animals to reconstitute with little sign of GVHD.

In data set [5] the test system is BFU-E and CFU-GM colonies. Description: Hemopoietic colony formation assay. The format is cell-based, murine. How it is done:
Hemopoietic colony forming cells were cultured as described in the art by Iscove & Sieber with minor modifications. SDA/DEAB treated or vehicle treated cells were added to murine hemopoietic culture mixture with erythropoietin and conditioned medium (Terry Fox Laboratories, Vancouver, Canada). The mixture was vortexed and 1-2 ml portions (1 x 10⁵ bone marrow cells) were plated in duplicate in 35 mm plastic petri dishes (lux suspension dishes, Flow Laboratories). The culture dishes were incubated in a humidified atmosphere (95% air : 5% CO₂) at 37°C. Colonies were counted on day 8 or 10 for BFU-E, CFU-GM and CFU-mix. Colony types were confirmed with Wright/Giemsa Stain.

Data set [6] concerns B6D2F1 mice. Description: Delayed type hypersensitivity to SRBC, footpad swelling. The format is in vivo. As for the experimental part:
Delayed type hypersensitivity was induced in the footpad of B6D2F1 mice and swelling measured in mm. Spermine dialdehyde was administered i.p. and i.m. at various timeperiods.
Delayed type hypersensitivity was induced in the footpad of B6D2F1 mice by using sheep red blood cells (SRBC) as the antigen. Briefly, 0.2 ml of 0.01% SRBC was injected i.v. into B6D2F1 mice. Four days later, they were challenged in the footpad with 50 µl of 20% SRBC. Swelling of the footpad was measured 24, 48, and 72 hours later. Spermine dialdehyde was administered i.p. initiating from the day before immunization. After challenge in the footpad, B6D2F1 mice were given an intramuscular (i.m.) injection beside the challenge site one hour after challenge. Some mice received no i.p. administration and were only given one i.m. injection after the challenge.

For the molecule `O=CCCNCCCCNCCC=O` [SDA, NN′-Bis-(3-propionaldehyde)-1-4-diaminobutane], the “acute signs (squinting and writhing)” value in data set [1] (200 mg and 400 mg/kg intraperitoneally) is on record as “acutely irritating”. For the same molecule, the toxic effects result is given as “no other toxic effect” in data set [1] (200 mg/kg intraperitoneally) and “abdominal or whole body edema for five days” in data set [1] (400 mg/kg intraperitoneally). Besides, the necropsy findings result in data set [1] (400 mg/kg, 14 days after injection) is “a mildly distended abdomen and scab formation at the injection site”. In addition, the “lethal dose (not lethal up to)” value in data set [1] (mouse, in vivo, ip) is recorded as > 400 mg/kg. Further, the “inhibition of AdoMet DC (in words)” value in data set [2] (Fig. 9 and Figure 10) was “inhibited both of the key enzymes”. The IC50 in data set [2] (Figure 9, inhibition curves superimposable, read-out: IC₅₀ values) was in the range of 120 to 130 µM. Besides, the ED (maximum) in data set [3] (Rattus norvegicus, iv, Figure 4, read-out: dose required to achieve maximum suppression of GVH reaction in vivo) came to 5 mg/kg. In addition, the minimal effective dose in data set [3] (Rattus norvegicus, intravenously or subcutaneously, read-out: dose effective to suppress graft vs. host reactions) lay within 5 to 10 mg/kg. Also, the “GVH reaction (popliteal lymph node swelling)” value in data set [3] (intravenous, daily, Figure 4) is “significantly suppressed the GVH reaction”. The “signs of GVHD” value in data set [4] (bone marrow treated ex vivo for 1 hour) is “only mild signs of GVHD”. Also, the survival time result in data set [4] (marrow treated ex vivo with lower doses (0.03-0.06), Figure 3) is on record as “significantly prolonged survival time”. In addition, the marrow toxicity result in data set [4] (very high dose groups of 0.2mM, ex vivo treatment) is recorded as “exhibited marrow toxicity”. Besides, the “suppression of BFU-E and CFU-GM colonies” value in data set [5] (50 µM) was “almost total suppression”. In addition, the “sensitivity of myeloid colony forming cells after DEAB pretreatment” value in data set [5] (SDA 10-25 µM, DEAB pretreatment) is given as “further potentiated the sensitivity”. Besides, the footpad swelling entry in data set [6] (given both systemically (i.p.) and locally (i.m.), 24 or 48 hours after challenge, Figure 7) is recorded as “reduced swelling”; in data set [6] (given only after challenge, 24 hours later) it was “swelling similar to that of mice receiving control vehicles”; in data set [6] (given only after challenge, 48 hours later), “reduced swelling compared to that of the control group”.
